In patent publication US7935703B2, “Piperazines and piperidines as Mglur5 potentiators” (AstraZeneca AB, priority 2006, dated 2011):

The molecules below were run against T1, human mGluR5d (Homo sapiens, UniProt P41594) (assay: functional assays for mGluR5 potentiation: [Ca2+]i mobilization (FLIPR), secondary IP3 turnover assay). Settings: active in assays described herein; which assay (FLIPR or IP3) is not stated.
T1 construct: expressed in transfected cells; host or cells: GHEK cells (human embryonic kidney cells expressing glutamate transporter), stated for the IP3 assay
Type: cell-based
Text: The pharmacological properties of the compounds of the invention can be analyzed using standard assays for functional activity. Examples of glutamate receptor assays are well known in the art as described in for example Aramori et al., Neuron 8:757 (1992), Tanabe et al., Neuron 8:169 (1992), Miller et al., J Neuroscience 15: 6103 (1995), Balazs, et al., J. Neurochemistry 69:151 (1997). The methodology described in these publications is incorporated herein by reference. Conveniently, the compounds of the invention can be studied by means of an assay that measures the mobilization of intracellular calcium, [Ca^2+]i in cells expressing mGluR5.
Intracellular calcium mobilization was measured by detecting changes in fluorescence of cells loaded with the fluorescent indicator fluo-3. Fluorescent signals were measured using the FLIPR system (Molecular Devices). A two addition experiment was used that could detect compounds that either activate or antagonize the receptor.
For FLIPR analysis, cells expressing human mGluR5d were seeded on collagen coated clear bottom 96-well plates with black sides and analysis of [Ca^2+]i mobilization was done 24 hours after seeding.
FLIPR experiments were performed using a laser setting of 0.800 W and a 0.4 second CCD camera shutter speed. Each FLIPR experiment was initiated with 160 μL of buffer present in each well of the cell plate. After each addition of the compound, the fluorescence signal was sampled 50 times at 1 second intervals followed by 3 samples at 5 second intervals. Responses were measured as the peak height of the response within the sample period.
EC50 and IC50 determinations were made from data obtained from 8-point concentration response curves (CRC) performed in duplicate. Agonist CRC were generated by scaling all responses to the maximal response observed for the plate. Antagonist block of the agonist challenge was normalized to the average response of the agonist challenge in 14 control wells on the same plate.
We have validated a secondary functional assay for mGluR5d based on Inositol Phosphate (IP3) turnover. IP3 accumulation is measured as an index of receptor mediated phospholipase C turnover. GHEK cells stably expressing the human mGluR5d receptors were incubated with [3H] myo-inositol overnight, washed three times in HEPES buffered saline and pre-incubated for 10 minutes with 10 mM LiCl. Compounds (agonists) were added and incubated for 30 minutes at 37° C. Antagonist and potentiator activity was determined by pre-incubating test compounds for 15 minutes, then incubating in the presence of glutamate or DHPG (EC80 for antagonists, EC30 for potentiators) for 30 minutes. Reactions were terminated by the addition of perchloric acid (5%). […]

T1 sequence (P41594 21-942 isoform P41594-3 limits assumed): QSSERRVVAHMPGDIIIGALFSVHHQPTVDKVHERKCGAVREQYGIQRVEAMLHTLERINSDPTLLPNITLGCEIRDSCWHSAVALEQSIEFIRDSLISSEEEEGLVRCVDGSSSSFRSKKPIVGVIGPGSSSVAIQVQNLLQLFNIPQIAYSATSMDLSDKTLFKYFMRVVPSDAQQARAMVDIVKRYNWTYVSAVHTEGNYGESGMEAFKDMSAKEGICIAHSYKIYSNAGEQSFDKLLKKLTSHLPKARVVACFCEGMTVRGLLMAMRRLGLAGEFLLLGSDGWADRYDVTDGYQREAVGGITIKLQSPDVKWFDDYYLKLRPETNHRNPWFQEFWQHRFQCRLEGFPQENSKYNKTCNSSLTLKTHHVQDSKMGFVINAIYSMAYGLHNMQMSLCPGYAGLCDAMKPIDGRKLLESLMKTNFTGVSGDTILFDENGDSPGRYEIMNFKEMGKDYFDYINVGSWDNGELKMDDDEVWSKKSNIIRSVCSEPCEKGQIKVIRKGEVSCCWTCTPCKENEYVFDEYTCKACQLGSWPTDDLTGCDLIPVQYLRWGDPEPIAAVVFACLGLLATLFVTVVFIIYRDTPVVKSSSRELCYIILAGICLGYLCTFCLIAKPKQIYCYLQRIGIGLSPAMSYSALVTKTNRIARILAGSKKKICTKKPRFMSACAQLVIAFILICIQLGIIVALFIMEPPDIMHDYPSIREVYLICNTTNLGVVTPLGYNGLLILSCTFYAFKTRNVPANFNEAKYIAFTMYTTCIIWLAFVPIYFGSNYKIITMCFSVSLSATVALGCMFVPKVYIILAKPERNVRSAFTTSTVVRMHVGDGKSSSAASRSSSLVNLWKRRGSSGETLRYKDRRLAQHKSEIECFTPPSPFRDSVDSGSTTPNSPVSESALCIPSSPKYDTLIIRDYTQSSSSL

Row | Compound | EC50 [µM]
1 | O=C(COCc1ccccc1)N1CCN(c2ccccc2)CC1 [Compound 12, 2-Benzyloxy-1-(4-phenyl-piperazin-1-yl)-ethanone] | 0.6
2 | N#Cc1cccnc1N1CCN(C(=O)COCc2ccccc2)CC1 [Compound 23, 2-[4-(2-Benzyloxy-acetyl)-piperazin-1-yl]-nicotinonitrile] | 5.1
3 | O=C(COCc1ccc(F)cc1)N1CCN(c2ccc(F)cc2F)CC1 [Compound 48, 1-[4-(2,4-Difluoro-phenyl)-piperazin-1-yl]-2-(4-fluoro-benzyloxy)-ethanone] | 0.4
4 | C[C@@H]1CN(c2ccc(Cl)cc2Cl)CCN1C(=O)COCc1ccncc1 [Compound 58, 1-[(R)-4-(2,4-Dichloro-phenyl)-2-methyl-piperazin-1-yl]-2-(pyridin-4-ylmethoxy)-ethanone] | 2.3
